US9365539B2, “Prolylcarboxypeptidase inhibitors” (Merck Sharp & Dohme Corp., priority 2010, dated 2016)

Target: human PrCP (Homo sapiens (Human), UniProt P42785)
Sequence (P42785 46-496): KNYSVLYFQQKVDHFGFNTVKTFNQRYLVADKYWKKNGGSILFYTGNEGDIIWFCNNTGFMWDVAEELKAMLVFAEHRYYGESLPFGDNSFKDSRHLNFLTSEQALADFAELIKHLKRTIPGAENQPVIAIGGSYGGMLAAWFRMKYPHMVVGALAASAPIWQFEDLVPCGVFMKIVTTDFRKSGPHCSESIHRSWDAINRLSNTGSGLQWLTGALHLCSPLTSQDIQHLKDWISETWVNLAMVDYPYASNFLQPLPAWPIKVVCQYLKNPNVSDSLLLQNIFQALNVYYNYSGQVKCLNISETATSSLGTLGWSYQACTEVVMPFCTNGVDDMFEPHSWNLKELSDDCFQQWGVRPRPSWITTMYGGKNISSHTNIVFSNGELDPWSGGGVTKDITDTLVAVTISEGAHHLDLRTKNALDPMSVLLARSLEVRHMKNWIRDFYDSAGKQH
Assay: Prolylcarboxypeptidase (PRCP) enzyme activity assay, fluorescence intensity kinetic assay
Type: biochemical
Conditions: recombinant human PrCP (CHO), 15 uM substrate, pH 5.5, 37° C.
Procedure: The potency of compounds of formula I against PrCP was determined by a fluorescence intensity kinetic assay measuring the IC50 values of PrCP inhibitor test compounds. […] The assay was run on a Perkin Elmer Envision 2103 plate reader using a 320 nm excitation filter and a 405 emission filter. The assay was performed using a Hamilton Star liquid handling workstation. The assay employed the internally quenched fluorescent substrate (1S)-1-carboxy-5-[(2,4-dinitrophenyl)amino]pentyl N-[(7-methoxy-2-oxo-2H-chromen-4-yl)acetyl]-L-alanyl-L-prolinate prepared in house.
The assay was run in a 384-well microliter plate at 37° C. with a total volume of 50 uL. Final assay concentrations were 0.13 nM human PrCP (CHO) or 0.09 nM mouse PrCP (CHO) enzyme, 15 uM substrate and varying concentrations of inhibitor in buffer containing 10 mM NaOAc, 100 mM NaCl and 19.5 ug/mL BSA at pH 5.5. The assay also contained 2% DMSO used to solubilize the substrate and inhibitor. Inhibitors were prepared in 100% DMSO and serial diluted (in 100% DMSO) to generate 11 point titration curves. Either 39 uL of human or mouse PrCP enzyme was added to the wells of the assay plate, followed by a 1 uL addition of the serially diluted inhibitor and mixed three times using a 30 uL mix volume. The reaction was initiated by the addition of 10 uL substrate and mixed three times using a 30 μL mix volume. The reactions were monitored continuously over 25 min at 37° C. to obtain initial velocities. IC50 values were calculated by comparing the resulting rates of reaction of the inhibited and control initial velocities.
The enzymes were diluted in a mixture of 10 mM NaOAc (pH 5.5)/100 mM NaCl buffer containing 25 ug/mL bovine serum albumin that had been warmed to 37° C. in a water bath. The PrCP inhibitor test compounds were plated in 100% DMSO with a highest concentration of 500 uM. There were 12 dilution points for each compound tested including a blank with DMSO only. The test compounds from the source titration plate were transferred into the assay reaction plate at a 1:50 dilution using the Hamilton Star workstation and mixed, resulting in a final concentration for the test compounds in the range of 10,000 to 0.066 nM. Likewise, two control compounds were similarly titrated and included in each assay, with final starting concentrations starting at 10,000 nM and 200 nM, respectively. The reaction was initiated by the addition of 75 uM of the (1S)-1-carboxy-5-[(2,4-dinitrophenyl)amino]pentyl N-[(7-methoxy-2-oxo-2H-chromen-4-yl)acetyl]-L-alanyl-L-prolinate substrate, which was diluted in a mixture of 10 mM NaOAc (pH 5.5)/100 mM NaCl that had been warmed to 37° C. in a water bath, dispensed using the Hamilton Star workstation and mixed. The substrate was solubilized in 100% DMSO prior to dilution into the assay. The final assay concentrations in the 50 uL reactions were 15 uM of (1S)-1-carboxy-5-[(2,4-dinitrophenyl)amino]pentyl N-[(7-methoxy-2-oxo-2H-chromen-4-yl)acetyl]-L-alanyl-L-prolinate substrate, 0.13 nM Human PrCP (CHO) or 0.09 nM Mouse PrCP (CHO), and 2% DMSO.
The resulting rates of reaction were used to determine the IC50 value for each PrCP inhibitor compound tested.
In the case of `CCn1nc(-c2ccc(Cl)cc2)cc1C1CCN(CCc2ccccc2)CC1` [Example 26, 4-[3-(4-chlorophenyl)-1-ethyl-1 H-pyrazol-5-yl]-1-(2-phenylethyl)piperidine], the IC50 is reported as 31.8 nM. With `CS(=O)(=O)N1CCC(N2CCC(c3cc(-c4ccc(Cl)cc4)nn3-c3ccccc3)CC2)C1` (centres unmarked) [Example 60, 4-[3-(4-chlorophenyl)-1-phenyl-1 H-pyrazol-5-yl]-1-[1-(methylsulfonyl)pyrrolidin-3-yl]piperidine] the IC50 was 21.1 nM. Work on `Clc1ccc(-c2cc(C3CCN(CCc4ccccc4)CC3)nn2-c2ccncn2)cc1` [Example 13, 4-{5-(4-chlorophenyl)-3-[1-(2-phenylethyl)piperidin-4-yl]-1 Hyl}pyrimidine] yielded an IC50 of 38.4 nM. With `Fc1ccc(-c2nc(C3C4CN(CCc5ccccc5)CC43)n(-c3ncccn3)n2)cc1` (centres unmarked) [Example 82, 6-[3-(4-Fluorophenyl)-1-(pyrimidin-2-yl)-1H-1,2,4-triazol-5-yl]-3-(2-phenylethyl)-3-azabicyclo[3.1.0]hexane] the IC50 was 28.6 nM. For `CO[C@@H](CN1CCC(c2nc(-c3ccc(F)cc3)nn2-c2ncccn2)CC1)c1ccccc1` [Example 81, 2-[3-(4-fluorophenyl)-5-{1-[(2 R)-2-methoxy-2-phenylethyl]piperidin-4-yl}-1 H-1,2,4-triazol-1-yl]pyrimidine], the IC50 was 2.58 nM. With `Clc1ccc(-c2cc(C3CCN(CCc4ccccc4)CC3)n(-c3ncccn3)n2)cc1` [Example 1, 2-{3-(4-Chlorophenyl)-5-[1-(2-phenylethyl)piperidin-4-yl]-1H-pyrazol-1-yl}pyrimidine] the IC50 was 0.051 nM. `COC(=O)C(CN1CCC(c2cc(-c3ccc(F)cc3)nn2-c2ncccn2)CC1)c1ccccc1` (centres unmarked) [Example 33, Methyl 3-{4-[3-(4-fluorophenyl)-1-(pyrimidin-2-yl)-1 H-pyrazol-5-yl]piperidin-1-pyrazol-5-yl]piperidin-1] gave an IC50 of 0.035 nM. With `OC(CN1CCC(c2cc(-c3ccc(Cl)cc3)nn2-c2ncccn2)CC1)c1ccccc1` (centres unmarked) [Example 36, 2-{4-[3-(4-Chlorophenyl)-1-(pyrimidin-2-yl)-1H-pyrazol-5-yl]piperidin-1-yl}-1-phenylethanol] the IC50 was 0.31 nM. `O=C(Cc1ccccc1C(F)(F)F)N1CCC(c2cc(-c3ccc(F)cc3)nn2-c2ncccn2)CC1` [Example 68, 1-{4-[3-(4-fluorophenyl)-1-(pyrimidin-2-yl)-1 H-pyrazol-5-yl]piperidin-1-yl}-2-[2-(trifluoromethyl)phenyl]ethanone] gave an IC50 of 1.28 nM. `O=S(=O)(c1ccc(N2CCC(c3cc(-c4ccc(Cl)cc4)nn3-c3ncccn3)CC2)nc1)N1CCOCC1` [Example 48, 4-[(6-{4-[3-(4-chlorophenyl)-1-(pyrimidin-2-yl)-1 H-pyrazol-5-yl]piperidin-1-yl}pyridin-3-yl)sulfonyl]morpholine] gave an IC50 of 80.2 nM. In the case of `O=C(O)C(CN1CCC(c2cc(-c3ccc(F)cc3)nn2-c2ncccn2)CC1)c1ccccc1` (centres unmarked) [Example 34, 3-{4-[3-(4-fluorophenyl)-1-(pyrimidin-2-yl)-1 H-pyrazol-5-yl]piperidin-1-yl}-2-phenylpropanoic acid], the IC50 is reported as 0.51 nM.

Tested on: not given
Assay: not given
Conditions: intracerebroventricular to rats; cited from earlier work
In the case of t-butyl carbamate-prolyl prolinal [BPP], the overnight food intake is listed as “suppression of overnight food intake”.

Tested on: not given
Assay: not given
Conditions: systemic administration to obese, leptin deficient mice; cited from earlier work
For t-butyl carbamate-prolyl prolinal [BPP], the overnight food intake is listed as “suppression of overnight food intake”.

Tested on: not given
Assay: not given
Conditions: limited weight loss of about; cited from earlier work
For `CCCCCCCCCCC[C@@H](C[C@@H]1OC(=O)[C@H]1CCCCCC)OC(=O)[C@H](CC(C)C)NC=O` [orlistat], the “weight loss, of body weight, drug compared to placebo” value (“weight loss … compared to placebo” for short) is listed as 5%-10%. For `CC(C)CC(N(C)C)C1(c2ccc(Cl)cc2)CCC1` (centres unmarked) [sibutramine], the “weight loss … compared to placebo” value is given as 5%-10%. For `CC(C)(N)Cc1ccccc1` [phentermine], the “weight loss … compared to placebo” value is listed as 5%-10%. In the case of `CCN[C@@H](C)Cc1cccc(C(F)(F)F)c1` [dexfenfluramine], the “weight loss … compared to placebo” value is given as 5%-10%.
